The text below walks through data of patent publication US20240158412A1 (Faxian Therapeutics, LLC, priority 2021, published 2024).

Some results are limits rather than exact numbers.
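Also: fluorescence intensity readout of USP7 enzymatic activity, reaction incubated 90 min at room temperature.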

The experiment deals with USP7 (Homo sapiens, UniProt Q93009). Nature of the experiment: biochemical.
Chain of USP7 (Q93009 whole entry): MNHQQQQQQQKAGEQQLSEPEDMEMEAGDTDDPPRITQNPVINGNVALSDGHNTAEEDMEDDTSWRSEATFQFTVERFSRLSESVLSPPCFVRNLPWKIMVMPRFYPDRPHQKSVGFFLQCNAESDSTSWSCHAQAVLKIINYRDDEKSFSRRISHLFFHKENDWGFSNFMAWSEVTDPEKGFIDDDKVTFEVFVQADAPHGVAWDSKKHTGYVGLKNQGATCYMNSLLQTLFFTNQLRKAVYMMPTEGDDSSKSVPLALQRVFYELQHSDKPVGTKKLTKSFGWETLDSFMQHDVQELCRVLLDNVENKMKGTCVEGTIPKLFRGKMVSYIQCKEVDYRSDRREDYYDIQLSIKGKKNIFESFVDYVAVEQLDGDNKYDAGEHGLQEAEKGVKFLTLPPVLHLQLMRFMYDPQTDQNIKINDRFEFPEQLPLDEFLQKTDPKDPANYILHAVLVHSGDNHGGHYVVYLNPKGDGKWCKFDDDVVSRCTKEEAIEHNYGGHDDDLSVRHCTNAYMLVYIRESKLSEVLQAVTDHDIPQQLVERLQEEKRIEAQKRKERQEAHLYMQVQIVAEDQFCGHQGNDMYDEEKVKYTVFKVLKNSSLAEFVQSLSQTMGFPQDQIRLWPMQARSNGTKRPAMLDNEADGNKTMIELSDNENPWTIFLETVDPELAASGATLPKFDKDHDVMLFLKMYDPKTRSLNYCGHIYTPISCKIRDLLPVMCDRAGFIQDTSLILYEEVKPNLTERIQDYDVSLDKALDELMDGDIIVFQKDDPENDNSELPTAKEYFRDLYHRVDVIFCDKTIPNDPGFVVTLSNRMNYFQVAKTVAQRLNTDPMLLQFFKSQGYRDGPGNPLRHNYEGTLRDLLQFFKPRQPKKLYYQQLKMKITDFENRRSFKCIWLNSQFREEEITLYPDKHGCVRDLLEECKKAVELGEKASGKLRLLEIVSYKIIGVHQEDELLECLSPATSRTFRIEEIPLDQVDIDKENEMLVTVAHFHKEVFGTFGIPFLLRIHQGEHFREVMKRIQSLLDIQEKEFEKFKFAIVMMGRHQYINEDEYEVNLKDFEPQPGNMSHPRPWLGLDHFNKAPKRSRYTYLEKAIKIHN
Take `O=C1CCC(=O)N1Cc1cc2nccc(-c3cc(Cl)cc4c3N([C@@H]3CN(CCO)C5(CCC5)C3)CCC4)c2s1` [Example 141, (S)-1-((7-(6-chloro-1-(5-(2-hydroxyethyl)-5-azaspiro[3.4]octan-7-yl)-1,2,3,4-tetrahydroquinolin-8-yl)thieno[3,2-b]pyridin-2-yl)methyl)pyrrolidine-2,5-dione]: the IC50 is < 10 nM.

In the case of `O=C1CCC(=O)N1Cc1cc2nccc(-c3cc(Cl)cc4c3N([C@@H]3CN(CCF)C5(CCC5)C3)CCC4)c2s1` [Example 142, (S)-1-((7-(6-chloro-1-(5-(2-fluoroethyl)-5-azaspiro[3.4]octan-7-yl)-1,2,3,4-tetrahydroquinolin-8-yl)thieno[3,2-b]pyridin-2-yl)methyl)pyrrolidine-2,5-dione], the IC50 was < 10 nM.

As to `O=C1CCC(=O)N1Cc1cc2nccc(-c3cc(Cl)cc4c3N([C@@H]3CN(CCc5nnn[nH]5)C5(CCC5)C3)CCC4)c2s1` [Example 144, (S)-1-((7-(1-(5-(2-(1H-tetrazol-5-yl)ethyl)-5-azaspiro[3.4]octan-7-yl)-6-chloro-1,2,3,4-tetrahydroquinolin-8-yl)thieno[3,2-b]pyridin-2-yl)methyl)pyrrolidine-2,5-dione], the half-maximal inhibitory concentration (IC50) is 10 to 100 nM.

As to `O=C1C2CC2C(=O)N1Cc1cc2nccc(-c3cc(Cl)cc4c3N([C@@H]3CNC5(CCC5)C3)CCC4)c2s1` (stereo partly drawn) [Example 145, 3-((7-(6-chloro-1-((S)-5-azaspiro[3.4]octan-7-yl)-1,2,3,4-tetrahydroquinolin-8-yl)thieno[3,2-b]pyridin-2-yl)methyl)-3-azabicyclo[3.1.0]hexane-2,4-dione], the 50% inhibitory concentration (IC50) is < 10 nM.

In the case of `O=c1ccn(C2CC(F)(F)C2)c(=O)n1Cc1cc2nccc(-c3cc(Cl)cc4c3N([C@@H]3CNC5(CCC5)C3)CCC4)c2s1` [Example 146, (S)-3-((7-(6-chloro-1-(5-azaspiro[3.4]octan-7-yl)-1,2,3,4-tetrahydroquinolin-8-yl)thieno[3,2-b]pyridin-2-yl)methyl)-1-(3,3-difluorocyclobutyl)pyrimidine-2,4(1H,3H)-dione], the IC50 was < 10 nM.

In turn, `CC1(C)C2C(=O)N(Cc3cc4nccc(-c5cc(Cl)cc6c5N([C@@H]5CNC7(CCC7)C5)CCC6)c4s3)C(=O)C21` (stereo partly drawn) [Example 147, 3-((7-(6-chloro-1-((S)-5-azaspiro[3.4]octan-7-yl)-1,2,3,4-tetrahydroquinolin-8-yl)thieno[3,2-b]pyridin-2-yl)methyl)-6,6-dimethyl-3-azabicyclo[3.1.0]hexane-2,4-dione] had an IC50 of 10 to 100 nM.

Consider `O=c1ccn(C2CC2)c(=O)n1Cc1cc2nccc(-c3cc(Cl)cc4c3N([C@@H]3CNC5(CCC5)C3)CCC4)c2s1` [Example 148, (S)-3-((7-(6-chloro-1-(5-azaspiro[3.4]octan-7-yl)-1,2,3,4-tetrahydroquinolin-8-yl)thieno[3,2-b]pyridin-2-yl)methyl)-1-cyclopropylpyrimidine-2,4(1H,3H)-dione], for which the IC50 was < 10 nM.

Regarding `O=c1ccn(C(F)F)c(=O)n1Cc1cc2nccc(-c3cc(Cl)cc4c3N([C@@H]3CNC5(CCC5)C3)CCC4)c2s1` [Example 149, (S)-3-((7-(6-chloro-1-(5-azaspiro[3.4]octan-7-yl)-1,2,3,4-tetrahydroquinolin-8-yl)thieno[3,2-b]pyridin-2-yl)methyl)-1-(difluoromethyl)pyrimidine-2,4(1H,3H)-dione], the IC50 is < 10 nM.

Regarding `CN1CC(=O)N(Cc2cc3nccc(-c4cc(Cl)cc5c4N([C@@H]4CNC6(CCC6)C4)CCC5)c3s2)C1=O` [Example 150, (S)-3-((7-(6-chloro-1-(5-azaspiro[3.4]octan-7-yl)-1,2,3,4-tetrahydroquinolin-8-yl)thieno[3,2-b]pyridin-2-yl)methyl)-1-methylimidazolidine-2,4-dione], the IC50 is < 10 nM.

For the compound `O=C1COC(=O)N1Cc1cc2nccc(-c3cc(Cl)cc4c3N([C@@H]3CNC5(CCC5)C3)CCC4)c2s1` [Example 151, (S)-3-((7-(6-chloro-1-(5-azaspiro[3.4]octan-7-yl)-1,2,3,4-tetrahydroquinolin-8-yl)thieno[3,2-b]pyridin-2-yl)methyl)oxazolidine-2,4-dione], the IC50 was < 10 nM.

`CC1(C)OC(=O)N(Cc2cc3nccc(-c4cc(Cl)cc5c4N([C@@H]4CNC6(CCC6)C4)CCC5)c3s2)C1=O` [Example 152, (S)-3-((7-(6-chloro-1-(5-azaspiro[3.4]octan-7-yl)-1,2,3,4-tetrahydroquinolin-8-yl)thieno[3,2-b]pyridin-2-yl)methyl)-5,5-dimethyloxazolidine-2,4-dione] displayed an IC50 of 10 to 100 nM.

`Cc1cnn(Cc2cc3nccc(-c4cc(Cl)cc5c4N([C@@H]4CNC6(CCC6)C4)CCC5)c3s2)c(=O)c1` [Example 153, (S)-2-((7-(6-chloro-1-(5-azaspiro[3.4]octan-7-yl)-1,2,3,4-tetrahydroquinolin-8-yl)thieno[3,2-b]pyridin-2-yl)methyl)-5-methylpyridazin-3(2H)-one]: the IC50 is < 10 nM.

In the case of `O=c1cc(CC(F)(F)F)cnn1Cc1cc2nccc(-c3cc(Cl)cc4c3N([C@@H]3CNC5(CCC5)C3)CCC4)c2s1` [Example 154, (S)-2-((7-(6-chloro-1-(5-azaspiro[3.4]octan-7-yl)-1,2,3,4-tetrahydroquinolin-8-yl)thieno[3,2-b]pyridin-2-yl)methyl)-5-(2,2,2-trifluoroethyl)pyridazin-3(2H)-one], the half-maximal inhibitory concentration (IC50) is < 10 nM.

In the case of `O=C1[C@@H]2[C@H]3CC[C@H](C3)[C@@H]2C(=O)N1Cc1cc2nccc(-c3cc(Cl)cc4c3N([C@@H]3CNC5(CCC5)C3)CCC4)c2s1` [Example 155, (3aR,4S,7R,7aS)-2-((7-(6-chloro-1-((S)-5-azaspiro[3.4]octan-7-yl)-1,2,3,4-tetrahydroquinolin-8-yl)thieno[3,2-b]pyridin-2-yl)methyl)hexahydro-1H-4,7-methanoisoindole-1,3(2H)-dione], the half-maximal inhibitory concentration (IC50) lay within 10 to 100 nM.

`CC1(C)OC(=O)C(Cc2cc3nccc(-c4cc(Cl)cc5c4N([C@@H]4CNC6(CCC6)C4)CCC5)c3s2)C(=O)O1` [Example 156, (S)-5-((7-(6-chloro-1-(5-azaspiro[3.4]octan-7-yl)-1,2,3,4-tetrahydroquinolin-8-yl)thieno[3,2-b]pyridin-2-yl)methyl)-2,2-dimethyl-1,3-dioxane-4,6-dione] displayed an IC50 of 101 to 1000 nM.

`O=C1OC[C@@H](C(F)(F)F)N1Cc1cc2nccc(-c3cc(Cl)cc4c3N([C@@H]3CNC5(CCC5)C3)CCC4)c2s1` [Example 157, (S)-3-((7-(6-chloro-1-((S)-5-azaspiro[3.4]octan-7-yl)-1,2,3,4-tetrahydroquinolin-8-yl)thieno[3,2-b]pyridin-2-yl)methyl)-4-(trifluoromethyl)oxazolidin-2-one] had a 50% inhibitory concentration (IC50) of 10 to 100 nM.

For `O=C1OC[C@H](C(F)(F)F)N1Cc1cc2nccc(-c3cc(Cl)cc4c3N([C@@H]3CNC5(CCC5)C3)CCC4)c2s1` [Example 158, (R)-3-((7-(6-chloro-1-((S)-5-azaspiro[3.4]octan-7-yl)-1,2,3,4-tetrahydroquinolin-8-yl)thieno[3,2-b]pyridin-2-yl)methyl)-4-(trifluoromethyl)oxazolidin-2-one], the IC50 is < 10 nM.

Turning to `O=C1CN(C2CC(F)(F)C2)C(=O)N1Cc1cc2nccc(-c3cc(Cl)cc4c3N([C@@H]3CNC5(CCC5)C3)CCC4)c2s1` [Example 159, (S)-3-((7-(6-chloro-1-(5-azaspiro[3.4]octan-7-yl)-1,2,3,4-tetrahydroquinolin-8-yl)thieno[3,2-b]pyridin-2-yl)methyl)-1-(3,3-difluorocyclobutyl)imidazolidine-2,4-dione], the half-maximal inhibitory concentration (IC50) was < 10 nM.

Consider `O=C1CCC(=O)N1Cc1cc2nccc(-c3cc(C(F)(F)F)cc4c3N([C@@H]3CNC5(CCC5)C3)CCC4)c2s1` [Example 163, (S)-1-((7-(1-(5-azaspiro[3.4]octan-7-yl)-6-(trifluoromethyl)-1,2,3,4-tetrahydroquinolin-8-yl)thieno[3,2-b]pyridin-2-yl)methyl)pyrrolidine-2,5-dione], for which the IC50 was < 10 nM.

On to `O=C1CCC(=O)N1Cc1cc2nccc(-c3cc(Cl)cc4c3N([C@@H]3CNC5(CCC5)C3)C[C@@H]3C[C@H]43)c2s1` [Example 165a, 1-((7-((1aR,7bS)-6-chloro-3-((S)-5-azaspiro[3.4]octan-7-yl)-1a,2,3,7b-tetrahydro-1H-cyclopropa[c]quinolin-4-yl)thieno[3,2-b]pyridin-2-yl)methyl)pyrrolidine-2,5-dione], for which the 50% inhibitory concentration (IC50) fell in the range of 10 to 100 nM.

Compound `O=C1CCC(=O)N1Cc1cc2nccc(-c3cc(Cl)cc4c3N([C@H]3CNC5(CCC5)C3)C[C@@H]3C[C@H]43)c2s1` [Example 165b, 1-((7-((1aR,7bS)-6-chloro-3-((R)-5-azaspiro[3.4]octan-7-yl)-1a,2,3,7b-tetrahydro-1H-cyclopropa[c]quinolin-4-yl)thieno[3,2-b]pyridin-2-yl)methyl)pyrrolidine-2,5-dione] came in with a half-maximal inhibitory concentration (IC50) of 101 to 1000 nM.

Take `O=C1CCC(=O)N1Cc1cc2nccc(-c3cc(Cl)cc4c3N([C@@H]3CNC5(CCC5)C3)C[C@H]3C[C@@H]43)c2s1` [Example 165c, 1-((7-((1aS,7bR)-6-chloro-3-((S)-5-azaspiro[3.4]octan-7-yl)-1a,2,3,7b-tetrahydro-1H-cyclopropa[c]quinolin-4-yl)thieno[3,2-b]pyridin-2-yl)methyl)pyrrolidine-2,5-dione]: the IC50 is < 10 nM.

As for `Cc1cnn(Cc2cc3nccc(-c4cc(Cl)cc5c4N([C@@H]4CNC6(CCC6)C4)C[C@H]4C[C@@H]54)c3s2)c(=O)c1` [Example 166, 2-((7-((1aS,7bR)-6-chloro-3-((S)-5-azaspiro[3.4]octan-7-yl)-1a,2,3,7b-tetrahydro-1H-cyclopropa[c]quinolin-4-yl)thieno[3,2-b]pyridin-2-yl)methyl)-5-methylpyridazin-3(2H)-one], the IC50 is < 10 nM.

In the case of `O=C1CCC(=O)N1Cc1cc2ncnc(-c3cc(Cl)cc4c3N([C@@H]3CNC5(CCC5)C3)C[C@H]3C[C@@H]43)c2s1` [Example 167a, 1-((4-((1aS,7bR)-6-chloro-3-((S)-5-azaspiro[3.4]octan-7-yl)-1a,2,3,7b-tetrahydro-1H-cyclopropa[c]quinolin-4-yl)thieno[3,2-d]pyrimidin-6-yl)methyl)pyrrolidine-2,5-dione], the IC50 was < 10 nM.
